According to patent US20240016718A1 (priority 2020, published 2024):
“And” between values parts separate entries of the source, which are not always exact repeats. Equal entries are not always repeated.

Key:
keratinocytes = tested on: keratinocytes; design: species or system Rhino mice (RHJ/LeJ); conditions: mouse, in vivo
fibroblasts = tested on: fibroblasts; design: species or system Rhino mice (RHJ/LeJ); conditions: mouse, in vivo
utriculi = tested on: utriculi; design: species or system Rhino mice (RHJ/LeJ); conditions: mouse, in vivo
[1] = tested on: dermis (inflammatory infiltrate); conditions: Rhino (RHJ/LeJ), mouse, in vivo
dorsal skin = conditions: Rhino (RHJ/LeJ), mouse, in vivo
[2] = tested on: sebaceous lipids in sebum (fatty acid, squalene, cholesterol, wax esters, cholesteryl ester); design: species or system Rhino mice (RHJ/LeJ); conditions: mouse, in vivo
IL-1 alpha = tested on: IL-1 alpha; design: species or system Rhino mice (RHJ/LeJ); conditions: mouse, in vivo
sebaceous glands = tested on: sebaceous glands; design: species or system Rhino mice (RHJ/LeJ); conditions: mouse, in vivo
sebocytes = tested on: sebocytes; design: species or system Rhino mice (RHJ/LeJ); conditions: mouse, in vivo
epidermis (back skin) = conditions: Rhino (RHJ/LeJ), mouse, in vivo
back skin of Rhino mice = conditions: Rhino (RHJ/LeJ), mouse, in vivo
Substance P = tested on: Substance P; design: species or system Rhino mice (RHJ/LeJ); conditions: mouse, in vivo

`COc1ccc(-c2ccc3cc(C(=O)O)ccc3c2)cc1C12CC3CC(CC(C3)C1)C2` [Adapalene] was tested, and the “Increase of Ki67 positive cells in epidermis (keratinocytes)” value (keratinocytes) was 30%, the “Ki67 positive cells per mm^2” value (keratinocytes) was 4411.7 cells per mm^2 and 4260.9 cells per mm^2 and 4248.9 cells per mm^2 and 3981.7 cells per mm^2 and 4121.7 cells per mm^2 and 4733.8 cells per mm^2 and the “Increase of Ki67 positive cells in dermis (fibroblasts)” value (fibroblasts) was 43%. For the same molecule, the “Ki67 positive cells per mm^2” value (fibroblasts) was 1229.8 cells per mm^2 and 1499.9 cells per mm^2 and 2072.0 cells per mm^2 and 1218.1 cells per mm^2 and 1088.8 cells per mm^2 and 1181.9 cells per mm^2, the “Decrease in the surface area of the utriculi” value (utriculi) was 94% and the utriculi surface (utriculi) was 515.3 μm^2 and 545.4 μm^2 and 585.7 μm^2 and 515.2 μm^2 and 806.1 μm^2 and 527.4 μm^2 and 605.0 μm^2. For the same molecule, the “Increase of inflammation of the dermis” value [1] was “+23%”, the “Thickening of the dorsal skin as compared to the vehicle group” value (dorsal skin) was “+14%” and the “Induction of increased excretion of fatty acid to the epidermis” value [2] was “did not”. For the same molecule, the “Decrease of IL-1 alpha level versus vehicle” value (IL-1 alpha) was 96%, the “IL-1 alpha Concentration” value (IL-1 alpha) was 50.4 ng/g tissue and 40.3 ng/g tissue and 45.1 ng/g tissue and 47.8 ng/g tissue and 69.3 ng/g tissue and 36.4 ng/g tissue and the “IL-1 alpha level in back skin (mean±SD)” value (IL-1 alpha) was 47.7±11.5 ng/g tissue. For the same molecule, the “Increase of sebaceous glands surface versus vehicle group” value (sebaceous glands) was “+82%”, the “Ki67 positive cells per mm^2” value (sebocytes) was 3722.1 cells per mm^2 and 4331.9 cells per mm^2 and 3916.9 cells per mm^2 and 3392.4 cells per mm^2 and 4299.5 cells per mm^2 and 2928.2 cells per mm^2 and the “Increase in epidermis thickness (hyperplasia)” value (epidermis (back skin)) was “+188%”. For the same molecule, the “Erythema mean score on dorsal skin” value (back skin of Rhino mice) was 0.3-1.1, the “Scaling mean score on dorsal skin” value (back skin of Rhino mice) was 0.5-1.3 and the “Substance P concentration in back skin” value (Substance P) was 335.5 pg/g tissue and 414.1 pg/g tissue and 453.4 pg/g tissue and 409.8 pg/g tissue and 403.9 pg/g tissue and 491.3 pg/g tissue.
